Measurements published in article PMC11003683, “Pyrrole-based inhibitors of RND-type efflux pumps reverse antibiotic resistance and display anti-virulence potential” (PLOS Pathogens, 2024).
Values after ≈ are worked out from the molar mass of the structure shown. Where two headings read alike, the source gives them in different places.

What was measured:
in vitro [1] = test: in vitro; set-up: species or system H-PBMC; MTT viability assay, absorbance at 570 nm, cytotoxicity IC50; details: human, pbmc; read-out: IC50
Method: (§1) The cytotoxicity assay was performed on Human Peripheral Blood Mononuclear cells (H-PBMC, Himedia, India) according to the manufacturer’s instructions. The H-PBMC (40,000 cells/well in 100 μL volume) suspension in RPMI-1640 media (containing 10% fetal bovine serum and 50 U/mL antibiotic-antimycotic solution) (Himedia^, India) was dispensed into 96-well polystyrene tissue culture-treated flat-bottom plates (Corning, U.S.). The plates were incubated for 48 h in a CO2 (5%) incubator at 37°C. After 48 h, the compounds (Ar1-Ar24) were added to the plates in a fresh medium and again incubated for 24 h in a CO2 (5%) incubator at 37°C. Next, MTT (1 mg/mL) was added to the wells, followed by incubation for 4–5 h. The formazan crystals were solubilized using a solubilizing solution (40% (v/v) dimethyl formamide in 2% (v/v) glacial acetic acid added with 16% sodium dodecyl sulfate), and the absorbance (OD570nm) was measured. Considering the lack of effect of EPIs on eukaryotic Ca^2+ ion channels, we further evaluated cytotoxicity on Human Peripheral Blood Mononuclear cells (H-PBMC). […] Our front runners, Ar1, Ar5, and Ar11, had extremely low toxicity toward H-PBMCs. […] Taken together, these experiments provide substantial evidence that Ar5 is non-toxic in vitro and can be used for therapeutic applications in vivo.

in vitro [2] = test: in vitro; set-up: MTT viability assay on human PBMCs, absorbance at 570 nm; details: human, pbmc; 24 h exposure, MTT; read-out: IC50
Method: as §1

[3] = test system: T1, Escherichia coli ATCC BAA-2774; test: microbe, parasite or virus in culture; set-up: MIC of antibiotic alone from antibiotic potentiation assay against XDR strain; details: ATCC BAA-2774 / ATCC BAA-2782, read-out: MIC (μg/mL) / Klebsiella pneumoniae ATCC BAA-2782 / Escherichia coli ATCC BAA-2774
T1 construct: ATCC BAA-2774
Text: (§2) We further tested the potentiation of Ar1, Ar5, Ar11, and Ar18 to RND efflux pump substrates (ciprofloxacin, levofloxacin, tetracycline, tigecycline, erythromycin, piperacillin, and chloramphenicol) against XDR E. coli ATCC BAA-2774 (expressing AcrAB-TolC), K. pneumoniae ATCC BAA-2782 (expressing AcrAB-TolC), and P. aeruginosa ATCC BAA-2795 (expressing MexAB-OprM). […] The fact that compounds potentiate a given antibiotic against efflux pump over-expressed strain but not deletion provides substantial evidence that the inhibition effect is RND efflux pump specific targeting AcrAB and MexAB efflux systems. The antibiotics, chemicals, and dyes were purchased from Sigma-Aldrich Chemical Co. (St. Louis, MO, United States) unless stated otherwise. The E. coli wild-type K-12 AG100 (argE3 thi-1 rpsLxylmtlΔ(gal-uvrB)supE44) and its derivatives, AcrB over-expressing AG100tet and AcrAB knockout AG100A (ΔacrAB::Tn903 Kan^r) were used in the study. AG100tet is derived from AG100 by gradual stepwise exposure to increased concentrations of tetracycline and was grown in the presence of 8 μg/mL tetracycline to maintain efflux pump over-expression. AG100A was grown in the presence of 100 μg/mL kanamycin to preserve the transposon. The P. aeruginosa ATCC BAA-2795 over-expressing MexAB-OprM (Chromachemie, India), and PAO750 (PAO1: ΔmexAB-oprM, ΔmexCD-oprJ, ΔmexEF-oprN, ΔmexXY) were also used in the study. The strains P. aeruginosa ATCC 27853, P. aeruginosa ATCC 15692 (PAO1), K. Pneumoniae ATCC BAA-2782, K. Pneumoniae ATCC 700603, and E. coli ATCC BAA-2774, were purchased from Himedia, India. All the strains were grown in BBL Cation-adjusted Mueller Hinton Broth (CA-MHB; BD, U.S.) at 37°C under standard conditions. Mueller Hinton Agar (MHA; Himedia, India) plates were used for bacterial viability counting.

[4] = test system: T2, Klebsiella pneumoniae ATCC BAA-2782; test: microbe, parasite or virus in culture; set-up: MIC of antibiotic alone from antibiotic potentiation assay against XDR strain; details: ATCCBAA2782, read-out: MIC (μg/mL) / Klebsiella pneumoniae ATCC BAA-2782
T2 construct: ATCC BAA-2782
Text: as §2

[5] = test system: T3, Pseudomonas aeruginosa ATCC BAA-2795; test: microbe, parasite or virus in culture; set-up: MIC of antibiotic alone from antibiotic potentiation assay against XDR strain; details: ATCC BAA-2782 / ATCC BAA-2795, read-out: MIC (μg/mL) / Klebsiella pneumoniae ATCC BAA-2782 / Pseudomonas aeruginosa ATCC BAA-2795
T3 construct: ATCC BAA-2795
Text: as §2

Row | Structure (SMILES) | CC50 at 24 h (in vitro [1]) [µg/mL] | CC50 at 24 h (in vitro [2]) [µg/mL] | MIC [3] [µg/mL] | MIC [4] [µg/mL] | MIC [5] [µg/mL]
1 | CCOC(=O)c1cc(-c2ccc(C(F)(F)F)cc2)cn1Cc1ccc(F)cc1 [Ar16] | 256 (≈ 654 µM) | 256 (≈ 654 µM) |  |  | 
2 | C[C@H]1COc2c(N3CCN(C)CC3)c(F)cc3c(=O)c(C(=O)O)cn1c23 [Levofloxacin] |  |  | 32 | 32 | 256
3 | O=C(O)c1cn(C2CC2)c2cc(N3CCNCC3)c(F)cc2c1=O [Ciprofloxacin] |  |  | 256 | 128 | 256
4 | CN(C)[C@@H]1C(O)=C(C(N)=O)C(=O)[C@@]2(O)C(O)=C3C(=O)c4c(O)cccc4[C@@](C)(O)[C@H]3C[C@@H]12 [Tetracycline] |  |  | 256 | 4 | 32
5 | CCOC(=O)c1cc(-c2ccc(F)cc2)c[nH]1 [Ar17] | 256 (≈ 1100 µM) | 256 (≈ 1100 µM) |  |  | 
6 | O=C(N[C@H](CO)[C@H](O)c1ccc([N+](=O)[O-])cc1)C(Cl)Cl [Chloramphenicol] |  |  | 32 | 16 | 256
7 | CC[C@H]1OC(=O)[C@H](C)[C@@H](O[C@H]2C[C@@](C)(OC)[C@@H](O)[C@H](C)O2)[C@H](C)[C@@H](O[C@@H]2O[C@H](C)C[C@H](N(C)C)[C@H]2O)[C@](C)(O)C[C@@H](C)C(=O)[C@H](C)[C@@H](O)[C@]1(C)O [Erythromycin] |  |  | 512 | 128 | 512
8 | CCOC(=O)c1cc(-c2cccc(CO)c2)cn1Cc1ccc(F)cc1 [Ar20] | > 128 | > 128 |  |  | 
9 | CCOC(=O)c1cc(-c2ccc(C#N)cc2)cn1Cc1ccc(F)cc1 [Ar21] | 256 (≈ 735 µM) | 256 (≈ 735 µM) |  |  | 
10 | CN(C)c1cc(NC(=O)CNC(C)(C)C)c(O)c2c1C[C@H]1C[C@H]3[C@H](N(C)C)C(O)=C(C(N)=O)C(=O)[C@@]3(O)C(O)=C1C2=O [Tigecycline] |  |  | 128 | 64 | 256
11 | COC(=O)c1cc(-c2ccc(F)cc2)cn1Cc1ccc(F)cc1 [Ar1] | 256 (≈ 782 µM) | 256 (≈ 782 µM) |  |  | 
12 | COC(=O)c1cc(-c2cccc(NC(C)=O)c2)cn1Cc1ccc(C)cc1 [Ar11] | > 256 | > 256 |  |  | 
13 | CCOC(=O)c1cc(-c2ccc(F)cn2)cn1Cc1ccc(F)cc1 [Ar19] | > 128 | > 128 |  |  | 
14 | CCOC(=O)c1cc(-c2ccc(C(F)(F)F)cc2)cn1Cc1ccc(C)cc1 [Ar24] | 256 (≈ 661 µM) | 256 (≈ 661 µM) |  |  | 
15 | CCOC(=O)c1cc(-c2ccc(F)cc2F)cn1Cc1ccc(F)cc1 [Ar18] | > 128 | > 128 |  |  | 
16 | CCN1CCN(C(=O)N[C@@H](C(=O)N[C@@H]2C(=O)N3[C@@H]2SC(C)(C)[C@@H]3C(=O)O)c2ccccc2)C(=O)C1=O [Piperacillin] |  |  | 512 | 1020 | 256
